Strand notation (5' to 3'): a small letter for the sugar, then the base; units joined by * are phosphorothioate-linked, units joined directly phosphodiester-linked; [ ] holds rarer units or linkages, { } end groups; capitals alone tell only the bases. k = constrained ethyl (cEt); [5mC] = 5-methylcytosine; d = 2'-deoxy (DNA)
System: Yap1 mRNA
Assay: Antisense inhibition of human Yap1 in A-431 cells by cEt gapmers, single dose (Example 1, RTS4814)
Format: cell-based
Outline: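 Free uptake of 2,000 nM 3-10-3 cEt gapmer (16-mer, full phosphorothioate, 5-methylcytosines) in A-431 cells for ~48 h. Yap1 mRNA quantified by qRT-PCR with set RTS4814, normalized to total RNA (RiboGreen), and expressed as % of untreated control; asterisked values target the amplicon region.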

[1] = Table 1, A-431 cells, free uptake, 2,000 nM, approximately 48 hours, RTS4814, Yap1 mRNA relative to untreated control cells
[2] = Table 2, A-431 cells, free uptake, 2,000 nM, approximately 48 hours, RTS4814, Yap1 mRNA relative to untreated control cells
[3] = A-431 cells, 5,000 cells per well, free uptake, 2,000 nM modified oligonucleotide, approx. 48 hours, RTS4814, normalized to RIBOGREEN, Table 3

Substance | YAP1 (% UTC) [1] [% UTC] | YAP1 (% UTC) [3] [% UTC] | also measured
715448 (antisense k[5mC]*kT*k[5mC]*dA*dA*dT*dT*d[5mC]*d[5mC]*dT*dG*dA*dG*kA*k[5mC]*kA) [Compound 715448] | 97 | – | –
715607 (antisense kT*k[5mC]*kA*d[5mC]*d[5mC]*dA*dT*dA*dG*d[5mC]*dA*d[5mC]*dA*kG*kA*kA) [Compound 715607] | 116 | – | –
715457 (antisense kA*kG*kA*dG*dT*dG*dA*dT*dA*dG*dG*dT*dG*k[5mC]*k[5mC]*kA) [Compound 715457] | 47 | – | –
715404 (kA*kA*kG*dA*dA*dG*dG*dA*dG*dT*d[5mC]*dG*dG*kG*k[5mC]*kA; antisense) [Compound 715404] | – | – | YAP1 (% UTC) [2]: 64 % UTC
715610 (antisense kG*kG*k[5mC]*dT*dG*dT*dG*dT*dA*dG*dG*d[5mC]*dT*kG*kA*k[5mC]) [Compound 715610] | 87 | – | –
715556 (kA*kA*kG*dT*dT*dA*dT*dT*d[5mC]*dA*dG*d[5mC]*dA*kG*k[5mC]*kT; antisense) [Compound 715556] | 63 | – | –
715625 (antisense kA*kT*kT*dG*d[5mC]*d[5mC]*dT*dA*dA*dG*dA*dG*dT*kA*kA*kA) [Compound 715625] | 99 | – | –
715463 (antisense k[5mC]*kT*kG*dT*dA*dG*d[5mC]*dT*dG*d[5mC]*dT*d[5mC]*dA*kT*kG*k[5mC]) [Compound 715463] | 73 | – | –
715558 (k[5mC]*kA*kG*dG*dA*dA*dG*dT*dT*dA*dT*dT*d[5mC]*kA*kG*k[5mC]; antisense) [Compound 715558] | – | 37 | –
715591 (k[5mC]*kT*kT*dT*dG*dG*d[5mC]*dA*dG*dA*dG*dA*dT*kA*kA*kA; antisense) [Compound 715591] | – | 41 | –
715454 (antisense kA*kT*kA*dG*dG*dT*dG*d[5mC]*d[5mC]*dA*d[5mC]*dT*dG*kT*kT*kA) [Compound 715454] | 78 | – | –
715565 (kG*kG*kA*dT*dA*dA*dA*dT*dG*dA*dA*dT*dT*kA*kT*kA; antisense) [Compound 715565] | 115 | – | –
715560 (k[5mC]*k[5mC]*k[5mC]*dT*dT*dT*dA*d[5mC]*dA*dA*dA*dA*dA*kT*kA*kG; antisense) [Compound 715560] | – | – | YAP1 (% UTC) [2]: 98 % UTC
715573 (kT*kA*kT*dA*dT*dA*dT*dG*dG*dT*dA*dG*dT*k[5mC]*kT*kA; antisense) [Compound 715573] | – | 76 | –
715624 (antisense kT*kG*k[5mC]*d[5mC]*dT*dA*dA*dG*dA*dG*dT*dA*dA*kA*kA*kA) [Compound 715624] | – | 123 | –
715405 (kT*kG*kA*dA*dG*dA*dA*dG*dG*dA*dG*dT*d[5mC]*kG*kG*kG; antisense) [Compound 715405] | – | 60 | –
715619 (antisense kA*kA*kA*dT*dA*dA*dG*dA*d[5mC]*dG*dG*dA*dT*kA*kA*kA) [Compound 715619] | 114 | – | –
715559 (k[5mC]*kT*kG*d[5mC]*d[5mC]*dA*dT*dT*dT*dA*dA*dG*dA*kA*kA*kT; antisense) [Compound 715559] | 114 | – | –
715579 (k[5mC]*kT*kG*dT*d[5mC]*dT*dG*dG*dA*dA*dT*dA*d[5mC]*kA*k[5mC]*kA; antisense) [Compound 715579] | – | 100 | –
715580 (kG*k[5mC]*k[5mC]*dT*dG*dT*d[5mC]*dT*dG*dG*dA*dA*dT*kA*k[5mC]*kA; antisense) [Compound 715580] | 101 | – | –
715501 (antisense kA*kA*kA*dA*dG*d[5mC]*d[5mC]*dT*dT*dA*dG*dA*dG*kT*k[5mC]*kA) [Compound 715501] | – | 28 | –
715465 (antisense kG*kT*k[5mC]*d[5mC]*dA*d[5mC]*dA*dT*dT*dT*dG*dT*d[5mC]*k[5mC]*k[5mC]*kA) [Compound 715465] | – | 91 | –
715569 (k[5mC]*kA*kA*dA*dG*dG*dT*dA*dG*dG*dA*dT*dA*kA*kA*kT; antisense) [Compound 715569] | – | – | YAP1 (% UTC) [2]: 122 % UTC
715456 (antisense kA*kG*kT*dG*dA*dT*dA*dG*dG*dT*dG*d[5mC]*d[5mC]*kA*k[5mC]*kT) [Compound 715456] | – | 96 | –
715590 (kT*kT*kG*dG*d[5mC]*dA*dG*dA*dG*dA*dT*dA*dA*kA*kA*k[5mC]; antisense) [Compound 715590] | – | – | YAP1 (% UTC) [2]: 84 % UTC
715538 (k[5mC]*kT*kT*dT*dG*dT*dA*dA*d[5mC]*dT*dT*dA*dA*kA*kA*kG; antisense) [Compound 715538] | 110 | – | –
715481 (antisense kT*kT*kG*dG*dA*dA*dA*d[5mC]*d[5mC]*dA*dT*dT*dA*kT*kT*kA) [Compound 715481] | 66 | – | –

Substance | YAP1 (% UTC) [1] [% UTC] | YAP1 (% UTC) [3] [% UTC] | also measured
715620 (antisense kA*kA*kA*dA*dA*dT*dA*dA*dG*dA*d[5mC]*dG*dG*kA*kT*kA) [Compound 715620] | – | – | YAP1 (% UTC) [2]: 111 % UTC
715474 (antisense k[5mC]*kT*kT*dT*d[5mC]*dT*dT*dT*dA*dT*d[5mC]*dT*dA*kG*k[5mC]*kT) [Compound 715474] | – | 78 | –
715480 (antisense kG*kG*kA*dA*dA*d[5mC]*d[5mC]*dA*dT*dT*dA*dT*dT*kA*k[5mC]*kT) [Compound 715480] | – | 23 | –
715414 (kA*kA*k[5mC]*dA*dT*dG*d[5mC]*dT*dG*dT*dG*dG*dA*kG*kT*k[5mC]; antisense) [Compound 715414] | – | 31 | –
715521 (kT*k[5mC]*kT*dT*d[5mC]*dT*dT*dT*d[5mC]*d[5mC]*dA*d[5mC]*dT*k[5mC]*kA*kA; antisense) [Compound 715521] | – | – | YAP1 (% UTC) [2]: 72 % UTC
715536 (kG*kG*k[5mC]*dT*dA*dT*dT*dA*dA*dG*d[5mC]*dT*dG*kT*kT*kT; antisense) [Compound 715536] | – | – | YAP1 (% UTC) [2]: 137 % UTC
715447 (antisense k[5mC]*kA*kA*dT*dT*d[5mC]*d[5mC]*dT*dG*dA*dG*dA*d[5mC]*kA*kT*k[5mC]) [Compound 715447] | – | 81 | –
715534 (kT*k[5mC]*k[5mC]*d[5mC]*d[5mC]*dA*dG*dG*dT*d[5mC]*dA*dG*d[5mC]*kA*kT*kG; antisense) [Compound 715534] | – | 112 | –
715431 (k[5mC]*k[5mC]*kA*dT*d[5mC]*d[5mC]*dT*dG*dA*dG*dT*d[5mC]*dA*kT*kG*kG; antisense) [Compound 715431] | – | – | YAP1 (% UTC) [2]: 99 % UTC
715479 (antisense kA*kA*kA*d[5mC]*d[5mC]*dA*dT*dT*dA*dT*dT*dA*d[5mC]*kT*k[5mC]*k[5mC]) [Compound 715479] | – | – | YAP1 (% UTC) [2]: 38 % UTC
715564 (k[5mC]*kA*kA*dG*d[5mC]*dA*d[5mC]*dA*d[5mC]*dA*dA*d[5mC]*dT*k[5mC]*kA*kG; antisense) [Compound 715564] | – | 75 | –
715570 (kG*k[5mC]*k[5mC]*dA*dA*dA*dG*dG*dT*dA*dG*dG*dA*kT*kA*kA; antisense) [Compound 715570] | – | 79 | –
715618 (antisense kA*kT*kA*dA*dG*dA*d[5mC]*dG*dG*dA*dT*dA*dA*kA*kA*kA) [Compound 715618] | – | 101 | –
715468 (antisense kG*k[5mC]*kT*dT*dG*dG*dT*dG*dG*d[5mC]*dA*dG*d[5mC]*k[5mC]*kA*kA) [Compound 715468] | – | 90 | –
715475 (antisense kA*kG*k[5mC]*dT*dT*dT*d[5mC]*dT*dT*dT*dA*dT*d[5mC]*kT*kA*kG) [Compound 715475] | 103 | – | –
715535 (k[5mC]*kT*kA*dT*dT*dA*dA*dG*d[5mC]*dT*dG*dT*dT*kT*kA*kA; antisense) [Compound 715535] | 91 | – | –
715442 (antisense k[5mC]*kA*k[5mC]*dT*dG*dG*dA*dG*d[5mC]*dA*d[5mC]*dT*d[5mC]*kT*kG*kA) [Compound 715442] | 64 | – | –
715489 (antisense kA*kA*k[5mC]*dT*dA*dT*dT*dA*d[5mC]*dT*dT*d[5mC]*dA*kT*kA*kG) [Compound 715489] | – | 90 | –
715461 (antisense kT*k[5mC]*kA*dT*d[5mC]*dT*d[5mC]*dG*dA*dG*dA*dG*dT*kG*kA*kT) [Compound 715461] | – | – | YAP1 (% UTC) [2]: 153 % UTC
715585 (kA*kA*kG*dG*dT*d[5mC]*dT*dG*dG*dA*dA*d[5mC]*dA*kG*kA*kT; antisense) [Compound 715585] | – | 73 | –
715509 (antisense kT*kG*k[5mC]*dT*dG*dT*dG*d[5mC]*dT*dG*dG*dG*dA*kT*kT*kG) [Compound 715509] | – | – | YAP1 (% UTC) [2]: 42 % UTC
715418 (kA*kG*kT*dG*dT*d[5mC]*d[5mC]*d[5mC]*dA*dG*dG*dA*dG*kA*kA*kA; antisense) [Compound 715418] | 126 | – | –
715593 (antisense kA*kT*kT*dT*d[5mC]*dT*dT*dT*dG*dG*d[5mC]*dA*dG*kA*kG*kA) [Compound 715593] | – | – | YAP1 (% UTC) [2]: 60 % UTC
715507 (antisense kT*kG*kG*dG*dA*dT*dT*dG*dA*dT*dA*dT*dT*k[5mC]*k[5mC]*kG) [Compound 715507] | – | 95 | –
715444 (antisense kT*k[5mC]*k[5mC]*d[5mC]*dT*dG*dT*dG*dG*dG*d[5mC]*dT*d[5mC]*kT*kG*kG) [Compound 715444] | – | 84 | –
715632 (antisense kA*kT*k[5mC]*d[5mC]*dA*dA*dT*dT*dA*dT*dG*dT*d[5mC]*k[5mC]*k[5mC]*kA) [Compound 715632] | – | – | YAP1 (% UTC) [2]: 109 % UTC
715433 (antisense kT*kG*kT*dT*d[5mC]*dT*dT*dA*dT*dG*dG*dT*dT*kT*kA*kT) [Compound 715433] | 36 | – | –

Reference: patent US11214803B2, “Modulators of YAP1 expression” (Ionis Pharmaceuticals, Inc., priority 2019, dated 2022)
